The text below walks through data of PMC9126943, “ADAMTS4-specific MR probe to assess aortic aneurysms in vivo using synthetic peptide libraries” (Nature Communications, 2022).

Data set [1] has as its target T1, ADAMTS4 in the aneurysmal aortic wall of ApoE−/− mice (Mus musculus, UniProt Q8BNJ2).
T1 construct: from tissue
T1 sequence (Q8BNJ2 209-833): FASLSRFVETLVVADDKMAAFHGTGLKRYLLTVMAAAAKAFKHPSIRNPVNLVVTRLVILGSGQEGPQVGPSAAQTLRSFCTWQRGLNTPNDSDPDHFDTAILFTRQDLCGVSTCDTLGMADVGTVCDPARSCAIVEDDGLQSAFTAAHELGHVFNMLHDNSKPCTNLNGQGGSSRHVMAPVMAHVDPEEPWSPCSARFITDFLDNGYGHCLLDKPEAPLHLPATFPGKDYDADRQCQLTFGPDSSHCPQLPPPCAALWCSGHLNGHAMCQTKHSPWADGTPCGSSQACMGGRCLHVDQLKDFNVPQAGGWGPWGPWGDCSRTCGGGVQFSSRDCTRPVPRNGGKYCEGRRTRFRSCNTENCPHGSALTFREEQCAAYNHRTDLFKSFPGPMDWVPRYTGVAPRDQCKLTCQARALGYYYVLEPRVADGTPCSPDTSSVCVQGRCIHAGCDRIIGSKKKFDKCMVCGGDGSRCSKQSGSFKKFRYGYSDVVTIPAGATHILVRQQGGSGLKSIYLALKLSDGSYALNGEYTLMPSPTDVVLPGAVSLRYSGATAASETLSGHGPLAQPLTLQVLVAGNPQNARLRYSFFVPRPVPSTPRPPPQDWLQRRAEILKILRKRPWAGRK
The data set can be described thus: In vivo MRI, longitudinal study (1 week after aneurysm induction). The following applies: longitudinal group, 1 week after AngII, n = 12; one line per mouse. As for the experimental part:
The longitudinal study includes an MR imaging session 1 week after aneurysm induction (n = 12) with the administration of the ADAMTS4-specific probe. Animals were then followed up for 4 weeks to evaluate the potential of the probes for the prediction of aneurysm progression. After 4 weeks, mice were sacrificed, and aortas excised.
MR imaging was performed using a clinical 3 T Siemens system (Biograph, Siemens Healthcare Solutions, Erlangen, Germany). The system was equipped with a 4-channel receive-coil array for mouse body applications (Mouse Heart Array, P-H04LE-030, Version 1, Rapid Biomedical, Germany). Following anesthesia injection, the animals were positioned in a prone position, and body temperature (37 °C) was monitored using an MR-compatible heating system (Model 1025, SA Instruments Inc, Stony Brook, NY) to avoid rapid cooling. […]
Analysis of resulting MR images was performed using OsiriX (version 7.1, OsiriX Foundation, Bernex, Switzerland). […] In order to assess the signal intensities, regions of interest (ROIs) were measured as areas of signal enhancement, which were co-localized with areas of aneurysmal-aortic tissue. For these areas, the CNR was calculated using the following formula: CNR = (Combined vessel-wall and aneurysmal-aortic-tissue-signal − blood-signal)/standard-deviation-signal (noise). […]

Data set [2] concerns the target T2, ADAMTS4 in the aortic wall of ApoE−/− mice (Mus musculus, UniProt Q8BNJ2).
T2 construct: from tissue
T2 sequence (Q8BNJ2 209-833): T1 sequence (Q8BNJ2 209-833)
Kind of data set: In vivo MRI with negative control probe and ADAMTS4-specific probe. The following applies: for CNR post administration, individual animals: d1 = negative control probe, d2 = ADAMTS4-specific probe, 0.13 mmol/kg. On the procedure: In vivo MR imaging was performed in 6 ApoE^−/− mice (n = 6): three mice (n = 3) received AngII through the osmotic minipumps, three mice (n = 3) received saline, serving as the control group. MR imaging was performed 4 weeks after minipump implantation. On day 1, a native MR scan was followed by the intravenous injection of the negative control peptide (0.13 mmol/kg) and a subsequent MR scan. 24 h later, mice were imaged prior to and following the intravenous administration of the ADAMTS4-specific probe (0.13 mmol/kg).
(§1) Analysis of resulting MR images was performed using OsiriX (version 7.1, OsiriX Foundation, Bernex, Switzerland). All morphometric measurements were conducted on high-resolution MRI images. In order to assess the signal intensities, regions of interest (ROIs) were measured as areas of signal enhancement, which were co-localized with areas of aneurysmal-aortic tissue. For these areas, the CNR was calculated using the following formula: CNR = (Combined vessel-wall and aneurysmal-aortic-tissue-signal − blood-signal)/standard-deviation-signal (noise). The signal of noise was defined as the standard deviation in pixel intensity from an ROI placed in the background air anterior to the aorta.

Data set [3] is described as follows: Biodistribution and blood clearance by ICP-MS of Gd.
For data set [4], the target named is T2, ADAMTS4 in the aortic wall of ApoE−/− mice. Kind of data set: In vivo MRI, early detection study (days 2, 4, 10). The following applies: for ADAMTS4-MRI signal (CNR): day 4 of AngII. As for the experimental part:
For the early detection study, we used an AAA group (n = 20). MR imaging was performed after 2, 4, and 10 days of AngII-infusion. At each time point, mice were scanned prior to and following the administration of the ADAMTS4-specific probe (0.13 mmol/kg body weight). On day 28 post implantation, only native imaging was performed and subsequently, the aortic samples were excised.
MR imaging was performed using a clinical 3 T Siemens system (Biograph, Siemens Healthcare Solutions, Erlangen, Germany). The system was equipped with a 4-channel receive-coil array for mouse body applications (Mouse Heart Array, P-H04LE-030, Version 1, Rapid Biomedical, Germany). Following anesthesia injection, the animals were positioned in a prone position, and body temperature (37 °C) was monitored using an MR-compatible heating system (Model 1025, SA Instruments Inc, Stony Brook, NY) to avoid rapid cooling. For intravenous administration of the molecular probe, venous access was established using a small diameter tube with an attached 30 G cannula. The imaging protocol included the following sequences:
After a three-dimensional (3D) gradient-echo scout scan, a non-contrast-enhanced two-dimensional time-of-flight angiography (2D TOF) was acquired in transverse orientation for visualization of the abdominal aorta with the following parameters: field of view (FOV) of […], a matrix of 960 × 960, resolution of 0.2 × 0.2 × 0.5 mm, 40 slices, repetition time (TR)/echo time (TE) of 35 ms/4.44 ms, flip angle of 90°, and bandwidth of 124 Hz/Px. A maximum intensity projection (MIP) was then automatically generated to obtain an arterial angiogram of the abdominal aorta for planning the subsequent MR angiography and delayed-enhancement scans. A 2D inversion time (TI) scout sequence, planned perpendicular to the abdominal aorta, was used to determine the optimal TI for blood-signal nulling. Acquisition parameters were as follows: for the 2D TI sequence—FOV 340 × 340 mm, matrix 576 × 576, spatial resolution 0.6 × 0.6 × 3 mm, TR/TE 44.91 ms/2.09 ms, flip angle 35°, bandwidth 579 Hz/Px, TR between subsequent IR pulses 1000 ms; and for the high-resolution 3D IR FLASH sequence—FOV 57 × 57 mm, matrix 384 × 384, spatial resolution = 0.1 × 0.1 × 0.3 mm, 56 slices, TR/TE = 1019.72/7.02 ms, flip angle 30°, bandwidth 130 Hz/px, TR between subsequent IR pulses = 1000 ms.
as §1

Where [5] appears, read: male ApoE−/− mice, i.v., n = 3 per time point.

Each structure is given as a SMILES string. “And” between values parts separate entries of the source, which are not always exact repeats. Equal values may be shown once. Where a SMILES comes first, the peptide text is derived from it. Bridges are numbered along the chain shown (N, C = ends). The star is where a group is joined. DOTA = O=C(O)CN1CCN(CC(=O)O)CCN(CC(=O)*)CCN(CC(=O)O)CC1

`N=C(N)NCCC[C@@H]1NC(=O)[C@H](CCCNC(=N)N)NC(=O)[C@H](CO)NC(=O)[C@@H](N)CSSC[C@@H](C(=O)N[C@@H](CO)C(=O)NCC(=O)NCC(=O)N[C@@H](CO)C(=O)NCC(=O)NCC(=O)N[C@@H](CCCCNC(=O)CN2CCN(CC(=O)O)CCN(CC(=O)O)CCN(CC(=O)O)CC2)C(=O)NCC(N)=O)NC(=O)CNC1=O` (Gd complex, metal not drawn) [ADAMTS4-specific probe] (H-CSRRGCSGGSGGK(DOTA)G-NH2; disulfide 1-6): the “CNR post administration, individual animals” value in data set [1] was 10.17 and 7.35 and 11.97 and 12.63 and 7.15 and 7.46 and 7.27 and 8.85 and 11.26 and 15.46 and 7.57 and 11.23; in data set [2] (AAA (AngII) mice), 10.87 and 12.24 and 11.33; in data set [2] (control (c, saline) mice), 6.48 and 5.75 and 6.1. Also, in data set [2] (0.13 mmol/kg i.v., 4 weeks after minipump implantation, n = 6), the “increase in MR signal / CNR in the aortic wall, in words” value was “strong and significant increase”. In addition, in data set [3] (ApoE−/− mice), the “time of highest aortic uptake after intravenous injection” value is recorded as 15 min. In addition, in data set [3] (ApoE−/− mice, i.v., over 120 min), the blood clearance entry was “rapid blood clearance”. For the same molecule, the “Gd levels in kidneys and urine” value in data set [3] (setting [5]) is on record as “Higher levels of Gd”. For the same molecule, in data set [3] (setting [5]), the “gadolinium uptake in liver, lung, spleen, heart and muscle” value is on record as “low gadolinium uptake”. Further, in data set [4] (ADAMTS4-MRI level after 4 days), the “ROC curve area for prediction of a fatal AAA rupture” value is reported as 0.96. Further, in data set [4] (ADAMTS4-MRI level after 4 days), the “sensitivity for prediction of a fatal AAA rupture (ROC)” value is reported as 0.88. Also, the “specificity for prediction of a fatal AAA rupture (ROC)” value in data set [4] (ADAMTS4-MRI level after 4 days) is on record as 0.9. For the same molecule, the “ADAMTS-4 levels (CNR)” value in data set [4] (day 4, subgroup n = 4 without significant outward remodeling on MRI) is given as 11.7±0.8. The “ADAMTS4-MRI signal (CNR)” value in data set [4] (animals that developed an AAA and survived for 4 weeks) came out at 10.3 ± 1.1; in data set [4] (animals that did not develop an AAA), 6.9 ± 1.2; in data set [4] (animals with fatal AAA rupture), 15.2 ± 0.7.
